# Patent publication US20030049253A1, “Polymeric conjugates for delivery of MHC-recognized epitopes via peptide vaccines” (priority 2001, published 2003)
# Key:
# Mouse spleen cells = assay: In vitro cytokine assay: IFN-γ ELISA of spleen cell culture supernatants; type: in vivo; conditions: spleen cells cultured with p7g peptide, 24 hours; limit of detection 5 pg/ml; FIG. 3
# Experimental: In vitro cytokine assay. Mouse spleen cells were cultured with p7g peptides in parallel with the ELISpot assays. Culture supernatants were collected 24 hours after addition of peptide, and the concentrations of gamma interferon (IFN-γ) were determined by enzyme-linked immunosorbent assay (ELISA). Briefly, anti-mouse IFN-γ (R46A2; monoclonal antibody, Pharmingen) was diluted in coating buffer (pH 9.6) and coated (1 μg protein/well) onto 96-well enzyme-linked immunosorbent assay (ELISA) plates (Nunc Immunoplates; Nunc. Corp., Naperville, Ill.) by overnight incubation at 4° C. The plates were washed six times in wash buffer, then blocked with PBS containing 0.05% Tween 20 (Sigma), 1% low-fat dry milk (Carnation; Nestle Food Corp., Glendale, Calif.), and 4% goat serum (KPL Laboratories, Gaithersburg, Md.) for 1 hour. After washing, each plate was incubated with samples diluted in PBS containing 1% BSA and 0.05% Tween 20 for 1 hour. The plates were then incubated with rabbit anti-mouse IFN-γ (Cytlmmune Sciences, Inc. College, Md.) diluted 1:1000 in the same PBS solution for 1 hour and washed again six times. […] The bound mouse IFN-γ was quantitated by calorimetric reaction using p-nitrophenyl phosphate as a substrate (KPL Laboratories). The optical density (OD) was measured at 405 nm in a Bio-Tek Plate Reader (Winooski, Vt.). […]
# [1] = tested on: CD4+ and CD8+ splenocytes; parameters: species or system BALB/c mice; conditions: mouse, in vivo
# CD4 receptor = CD4 receptor (Homo sapiens, UniProt P01730); conditions: in vitro; cited from earlier work
# [2] = tested on: R5 and dual-tropic (R5/X4) HIV-1 strains; conditions: monocyte-derived macrophages, microglia, primary CD4(+) T cells; cited from earlier work
# [3] = tested on: human amyloid β amino acid residues 1-42 (Aβ42 peptide); assay: Antibody titer to Aβ42 peptide in vaccinated mice; type: in vivo; conditions: 100 μg Aβ42 peptide per injection s.c., day 0 and day 14; FIG. 5
# Experimental: Mice were immunized with 100 μg Aβ42 peptide per injection. Aβ42 in PBS alone was injected as control. Mice were primed s.c. on day 0 and boosted on day 14. Detection used goat anti-mouse immunoglobulin conjugated to alkaline phosphatase and p-nitrophenyl phosphate.
substance,measurement,setting,value
AMQMLKETI [free p7g peptide],concentration of IFN-γ in culture supernatants (ELISA),Mouse spleen cells,no measurable IFN-γ
same,"CTL response and INF-γ expression (intracellular staining, flow cytometry)",[1],no CTL or INF-γ expression
AS TTTNYT [Peptide T],binding of isolated gp120 and HIV-1 to the CD4 receptor,CD4 receptor,inhibition of the binding
same,replication of HIV-1 strains,[2],inhibits replication
Aβ42 peptide alone,antibody titer to Aβ42 peptide,[3],no detectable anti-peptide antibody
Aβ42 peptide linked to HA,antibody titer to Aβ42 peptide,[3],substantial
